Here are results for two compounds from patent US20100317626A1, “The Use Of (3-Amino-2-Fluoropropyl) Phosphinic Acid For Treatment Of NERD” (ASTRAZENECA AB, priority 2007, published 2010).

For data set [1], the system named is transient lower esophageal sphincter relaxations (TLESRs). The data set can be described thus: Clinical study: number of TLESRs after a standardised meal, single-blind randomised placebo-controlled. It is filed as in vivo, healthy volunteers. The note with it: for reduction of the number of transient lower esophageal sphincter relaxations (TLESRs) as compared to placebo: healthy volunteers, 0-3 hours after intake of a standardised meal completed 1 hour after drug intake. How it is done:
A clinical study of (2R)-(3-Amino-2-fluoropropyl)phosphinic acid was performed. The study was a single-blind, randomised, parallel group, placebo-controlled study in healthy volunteers. Each subject was given 2 doses of (2R)-(3-Amino-2-fluoropropyl)phosphinic acid in escalating order and one placebo dose. A dose of (2R)-(3-Amino-2-fluoropropyl)phosphinic acid 0.8 mg/kg was compared to placebo and baclofen (40 mg) was used as a positive control. The order of treatments was randomised. The number of transient lower esophageal sphincter relaxations (TLESRs) 0-3 hours after intake of a standardised meal, (completed 1 hour after drug intake) were reduced by 36% and 47% for (2R)-(3-Amino-2-fluoropropyl)phosphinic acid and baclofen respectively, as compared to placebo (FIG. 1).

The test system of data set [2] is bile reflux and reflux symptoms. To be noted: patients with persistent non-acid duodenogastroesophageal reflux; cited from earlier work.
[3] abbreviates: clinical study in healthy volunteers.

For the compound `NC[C@@H](F)C[PH](=O)O` [(2R)-(3-Amino-2-fluoropropyl)phosphinic acid], in data set [1] (setting [3]), the “inhibition of TLESRs (result in words)” value was “efficacious” and the tolerability entry is on record as “well tolerated”. In addition, in data set [1] (dose 0.8 mg/kg), the “reduction of the number of transient lower esophageal sphincter relaxations (TLESRs) as compared to placebo” value was found to be 36%.
`NCC(CC(=O)O)c1ccc(Cl)cc1` (centres unmarked) [baclofen, reference compound]: in data set [1] (baclofen 40 mg, positive control), the “reduction of the number of transient lower esophageal sphincter relaxations (TLESRs) as compared to placebo” value is given as 47%. For the same compound, the “effect on bile reflux and reflux symptoms” value in data set [2] is “inhibit the occurrence of bile reflux and reflux symptoms”.
